Read-outs that look alike come from different tables or passages of the source.
Columns and labels:
RPE‐1 cells = assay: (Photo-)cytotoxicity on 2D cell monolayers, resazurin assay; format: cell-based; conditions: for IC50: RPE‐1, normoxic, 4 h exposure
Method: (§1) The 2D cytotoxicity and phototoxicity profiles of Os‐Pt‐Cer and controls, were evaluated in a panel of cancerous cell lines, including A2780 (ovarian carcinoma), A549 (non‐small cell lung carcinoma), and MCA205 (murine fibrosarcoma), as well as a non‐cancerous retinal pigment epithelial cell line (RPE‐1). Cells were treated with the compounds (0.003–100 µM) for 4 h, either kept in the dark or irradiated at 670 nm (13.5 J cm^− ^2) (Table S4 and Figure S22) or 740 nm (12.6 J cm^− ^2) and viability was assessed 44 h post‐treatment. To verify robustness, the incubation was extended to 72 h. […]
(§2) Human ovarian cancer (A2780) cells and mouse fibrosarcoma cells (MCA205) were cultured in RPMI media. Retinal pigment epithelium (RPE -1) cells were cultured in DMEM/F -12 medium. Lung cancer cells (A549) were cultured in F -12K medium. These cell lines were complemented with 10% of fetal bovine serum, 100 U/mL penicillin -streptomycin mixture, and maintained in a humidified atmosphere […]
(§3) (Photo-)cytotoxicity on 2D cell monolayers
(§4) The cytotoxicity of the compounds was assessed by measuring cell viability using a resazurin assay.
(§5) The cells were seeded in triplicates in 96 well plates with a density of 10 4 cells per well in 100 μL of media. After 24 h, the medium was removed, and the cells were treated with increasing concentrations (0.003 → 100 µM) of the compounds diluted in cell media , achieving a total volume of 100 μL/well.
(§6) The cells were incubated with the compound for 4 h (final incubation time 48 h) or 24 h (final incubation time 72 h). After this time, the media was removed and replaced with 100 μL of fresh medium. For the phototoxicity studies, the cells were exposed to light with an Atlas Photonics LUMOS BIO irradiation system. Each well was constantly irradiated at 670 nm (60 min, 13.50 J·cm-2) or 740 nm (60 min, 12.60 J·cm-2). During the irradiation, the temperature of the plate was maintained at 37 °C. The cells were grown in the incubator for an additional 44 or 48 h, respectively. For the determination of the dark cytotoxicity, the cells were not irradiated and after the medium exchange directly incubated for 44 h.
(§7) After this time, the medium was replaced with fresh medium containing resazurin (0.2 mg/mL). After […]
(§8) 4 h of incubation, the conversion of resazurin into resorufin was determined upon excitation at 540 nm and measurement of its emission at 590 nm using a Cytation 5 Imaging Reader from BioTek. The obtained data was analysed with the GraphPad Prism software […]
(§9) After 24 h of incubation at 37 °C, 5% CO 2, plates were read using a SpectraMaxM2 Microplate Reader ( λexc = 540 nm; λread = 590 nm). Fluorescence data were normalised, and data were fitted using GraphPad Prism Software, and IC 50 was calculated by non - linear regression. Changes in the size and shape of MCTS were monitored every 24 h using Cytation 5 Imaging Reader from BioTek, objective x4.
(§10) Intracellular distribution by confocal fluorescence microscopy
(§11) 10^4 cells/well (A2780 cells) were seeded in complete medium (RPMI) in µ -slide 8 well (Ibidi) (100 µl/well) and left for 24 h to attach to the bottom. Then, the culture medium was removed , and 100 µl of solution of the corresponding complexes (5 µM) was added. The complexes were incubated with the cells for 4 hours. Thereafter, the medium was removed and replaced by RPMI without phenol red , and Hoechst and MitoTracker Green were added at a final concentration of 1 µg/mL. They were incubated with the cells for 30 min in the dark at 37 °C. Images were collected in a sequential mode in a Leica TCS SP8 confocal microscope with a 60x oil immers ion objective, a line average of 4, and a format of […]
(§12) (MTG)→ 500 -550nm, and 488 nm (complexes)→ 680 -730 nm. The confocal pinhole was 1 Airy unit.
(§13) Images were analysed with LAS X Flim FCS software.
(§14) Intracellular distribution by ICP -MS

A2780 cells = assay: as above; format: cell-based, human; conditions: for IC50: A2780, normoxic, 4 h exposure
Method: as §1, §2, §3, §4, §5, §6, §7, §8, §9, §10, §11, §12, §13, §14

[1] = design: method as in not given; conditions: standard, acetonitrile; ref not given; cited from earlier work
MCA205 cells = assay: (Photo-)cytotoxicity on 2D cell monolayers, resazurin assay; format: cell-based, mouse; conditions: MCA205, normoxic, dark, 4 h exposure, total 48 h incubation; read-out: IC50 Dark
Method: as §1, §2, §3, §4, §5, §6, §7, §8, §9, §10, §11, §12, §13, §14

A549 cells = assay: as above; format: cell-based; conditions: A549, normoxic, dark, 4 h exposure, total 48 h incubation; read-out: IC50 Dark
Method: as §1, §2, §3, §4, §5, §6, §7, §8, §9, §10, §11, §12, §13, §14

A2780 MCTSs = assay: (Photo-)cytotoxicity on 3D multicellular tumour spheroids, resazurin assay; format: cell-based, human; conditions: normoxic, dark, one week of incubation, read-out: IC50 Dark
Method: A2780 spheroids (ca. 500 µm in diameter) were treated with increasing concentrations of the compounds and after 24 h of incubation, the medium was replaced with fresh medium, and the cells were either kept in the dark or irradiated for 1 h at 740 nm. Images of the spheroids were taken every 24 h for 3 days.
Additionally, the phototoxicity was tested via a fluorometric resazurin assay in A2780 MCTSs (Table 3). […] (Figure S29). […] This can be attributed to the different biological endpoints and time frames of the assays: spheroid diameter was monitored over 72 h, whereas resazurin measurements were performed after 7 days, potentially capturing delayed cytotoxic effects due to differences in drug cellular uptake.
4 h of incubation, the conversion of resazurin into resorufin was determined upon excitation at 540 nm and measurement of its emission at 590 nm using a Cytation 5 Imaging Reader from BioTek. The obtained data was analysed with the GraphPad Prism software
MCTS were cultured using ultra-low attachment 96 wells plates from Corning (Fisher Scientific 15329740). A2780 cells were seeded at a density of 1,500 cells per well in 100 μL of RPMI. Within 2-3 days, MCTSs have approximately 500 μm of diameter. The formation as well as integrity and diameter of the MCTSs were monitored by microscopy.
(Photo-)cytotoxicity on 3D multicellular tumor spheroids (MCTS)
After 2 days of growing at 37 °C in 5% CO2, the medium was removed, and MCTSs were treated by adding 100 μL of the medium in the well with increasing concentrations of compounds (Os-Pt-Cer, Os, Ceritinib, Oxaliplatin, cisplatin, and Ce6 as additional control). For untreated reference MCTSs, only half of the medium was added with fresh medium. After 24 hours, the MCTSs were divided into two identical groups. The first group was strictly kept in the dark. The second group was irradiated at 740 nm for 1 h (12.60 J·cm-2) using a LUMOS-BIO photoreactor (Atlas Photonics). After the irradiation, all groups were incubated additional 7 days. Thereafter, medium was replaced with 100 μL of fresh medium containing resazurin (0.2 mg/mL). After 24 h of incubation at 37 °C, 5% CO 2, plates were read using a SpectraMaxM2 Microplate Reader ( λexc = 540 nm; λread = 590 nm). Fluorescence data were normalised, and data were fitted using GraphPad Prism Software, and IC 50 was calculated by non - linear regression. Changes in the size and shape of MCTS were monitored every 24 h using Cytation 5 Imaging Reader from BioTek, objective x4. […]
Figure S29. Cell viability graphs after one week of incubation. Studied compounds were incubated for 24 h, thereafter the medium was renovated. For PDT, plates were irradiated at 740 nm for 1h using a LUMOS-BIO photoreactor (Atlas Photonics). For both PDT and regular cytotoxicity, cells were incubated for one week at 37 °C, 5 % CO2. The medium was renovated each two days. Then, the medium was replaced with 100 µL of fresh medium containing 0.2 mg/mL resazurin (Acros Organics). After 24 h of incubation, the fluorescence signal of the resazurin product was recorded (λexc = 540 nm; λem = 590 nm) using a Cytation 5 Cell Imaging Multi-Mode Reader (Biotek - Agilent).
(1 picture or pasted object on this page, not shown here)

[2] = Homo sapiens, 740 nm (60 min, 12.60 J·cm^−2), total 48 h, read-out: IC50 Irrad. 740 nm
[3] = Homo sapiens, dark, total 48 h incubation, read-out: IC50 Dark
[4] = dark, total 48 h incubation, read-out: IC50 Dark

In the case of `C=CC1=C(C)c2cc3[nH]c(cc4nc(cc5[nH]c(cc1n2)c(C)c5CCC(=O)O)C(CCC(=O)O)=C4C)c(C)c3C=C` [PPIX, Protoporphyrin], the IC50 (RPE‐1 cells; [2]) is reported as 41.6 ± 0.3 µM, the IC50 (RPE‐1 cells; [3]) is reported as over 100 µM and the “PI (IC50 dark/IC50 irradiation 740 nm)” value (RPE‐1 cells; RPE‐1) is reported as at least 2. The “PI (IC50 dark/IC50 irradiation 740 nm)” value (A2780 cells; A2780) was at least 6, the IC50 (A2780 cells; [2]) was 17.3 ± 0.01 µM and the IC50 (A2780 cells; [3]) was over 100 µM.
In the case of `[Ru+2].c1ccc(-c2ccccn2)nc1.c1ccc(-c2ccccn2)nc1.c1ccc(-c2ccccn2)nc1` [Ru(bpy)3, Tris(2,2'-bipyridyl) ruthenium (II)], the Quantum yield [1] is listed as 0.077 and the “Singlet oxygen quantum yield” value [1] is listed as 0.77.
Molecule `N.N.[Cl][Pt][Cl]` [Cisplatin] has an IC50 (MCA205 cells) of 0.72 ± 0.2 µM, an IC50 (A549 cells) of 1.11 ± 0.33 µM and an IC50 (RPE‐1 cells; [4]) of 15.2 ± 0.7 µM. It also gave an IC50 (A2780 MCTSs) of 2 ± 0.4 µM and an IC50 (A2780 cells; [4]) of 1.92 ± 0.4 µM.
